Literature values in patent US20240033221A1, “LONG-ACTING BUPIVACAINE MICROSPHERE FORMULATIONS” (Scienture, Inc., priority 2020, published 2024).
Where a name gives a salt, the structure may show the parent alone.

Settings: dental injections

Which results are given for `CCCCN1CCCCC1C(=O)Nc1c(C)cccc1C` (centres unmarked) [bupivacaine HCl, bupivacaine hydrochloride]?
duration of action: 2 to 8 h; onset of action: 2 to 10 min
